These results are taken from US12303518B2, “System for providing birth control” (The Population Council, Inc., priority 2019, dated 2025).

Where two headings read alike, the source gives them in different places.

Series [1] can be described thus: Pharmacokinetics of the vaginal system in 39 women over up to 13 product-use cycles. Format: in vivo. More on the design: concentration or dose not given beside the values. As to conditions: female, human, serum. As for the experimental part:
The pharmacokinetics (PK) of the vaginal system described herein were determined in 39 women who used the system for up to 13 product-use cycles. […] Over subsequent product-use cycles, the peak serum concentrations of SA and EE declined. Serum concentration-time profiles of SA and EE for product-pse cycles 1, 3, and 13 of system use are provided in FIG. 1 and FIG. 2 with PK parameters summarized in Table 8 and Table 9.

Series [2] is described as follows: PK study in females with BMI<25 vs BMI>25 kg/m^2. It counts as in vivo, human. As to conditions: 18 females BMI<25 vs 21 females BMI>25 kg/m^2. From the text: The vaginal system described herein has not been adequately evaluated in females with a body mass index of >29 kg/m2. […] Higher body weight associates with lower systemic exposure of SA and EE. In a PK study conducted in 18 females with BMI<25 (16.89-24.34) kg/m^2 and 21 females with BMI>25 (25.15-37.46) kg/m^2, up to 16% and 33% decreases in the systemic exposure (AUC0-21day) of SA and EE, respectively, were observed between the two BMI groups.

Series [3] can be described thus: Drug-drug interaction study with vaginal miconazole formulations. The note with it: concurrent water-based vaginal miconazole cream. It counts as in vivo, human. From the text:
However, the use of either the 1 day or the 3-day oil-based miconazole suppository was associated with an overall increase in exposure up to 67% for EE and 32% for SA. Considering the potential long-term effect on vaginal system performance, concurrent use of oil-based vaginal suppositories should not occur with the system's use. If there is a need to treat a vaginal condition, water-based vaginal cream or oral therapy may be used concurrently with the vaginal system.

Series [4] concerns SHBG. Put plainly: Effect on serum concentrations of SHBG. As to conditions: in vivo.
The nature of series [5]: Recoverable SA and EE after storage. Format: physicochemical. As to conditions: for amount recoverable from the vaginal system: 24 months of storage at 25° C. and 60% relative humidity. As for the experimental part:
This was quite surprising as a similar trend was not observed during long-term stability studies on the cores before assembly.
• Diluent: methanol/water 58/42 v/v • Dried NES and EE before weighing (100-105° C. 3 h) • EE stock solution: Dissolved 25.0 mg of EE and diluted to 250.0 mL with methanol (duplicates, EE1 and EE2) • NES stock solution: Dissolved 50.0 mg of NES and diluted to 100.0 mL with methanol (duplicates, NES1 and NES2) • Standard solutions: • S1: Diluted 5.0 mL of NES1 and 4.0 mL of EE1 to 50.0 mL with diluent • S2: Diluted 6.0 mL of NES2 and 5.0 mL of EE2 to 50.0 mL with diluent • S3: Diluted 8.0 mL of NES1 and 7.0 mL of EE1 to 50.0 mL with diluent • S4: Diluted 10.0 mL of NES2 and 9.0 mL of EE2 to 50.0 mL with diluent • System suitability solution (SST solution): Diluted 5.0 mL acetone+7.0 mL NES1+6.0 mL EE1 to 50.0 mL with diluent. Extraction Procedure: • Rings were cut into 8 pieces and each piece was divided lengthwise then transferred to an Erlenmeyer flask. • 140 mL of acetone (weight of flask was noted before and after acetone addition) was added to the flask. […] Liquid Chromatography Column • analytical column: Discovery C8, 5 μm, 150×4.6 mm (Supelco) • pre-column: Supelguard, Discovery C8, 5 μm, 20×4.0 mm (Supelco) • stationary phase: endcapped C8 (5 μm particle size) USP L7 • temperature: 30° C. • Mobile phase: methanol/water 58/42, isocratic elution • Flow rate: 1.2 mL/min • Detection (assay): NES UV 240 nm, EE UV 280 nm • Detection (identity): PDA (photodiode array detector) scanning 220-310 nm, NES 240 nm, EE 280 nm • Injection: 20 μL • Run time: 15 min • System suitability: SST solution • Area precision (n=5): RSD (%)≤2.0 • Peak tailing (T): 0.8≤T≤1.5 • Blank injections: No interfering peaks • Retention times: EE approximately 7 min and NES approximately 9 min • Results Assay: Report the average value of three different rings and express as mg EE/ring and mg NES/ring. • Results Content uniformity: Calculate the average value of ten different rings. […]

For series [6] the following is noted: in vivo; cited from earlier work.
Series [7] concerns the target T1, sex hormone-binding globulin (SHBG) (Homo sapiens, UniProt P04278).
T1 sequence (P04278 30-402): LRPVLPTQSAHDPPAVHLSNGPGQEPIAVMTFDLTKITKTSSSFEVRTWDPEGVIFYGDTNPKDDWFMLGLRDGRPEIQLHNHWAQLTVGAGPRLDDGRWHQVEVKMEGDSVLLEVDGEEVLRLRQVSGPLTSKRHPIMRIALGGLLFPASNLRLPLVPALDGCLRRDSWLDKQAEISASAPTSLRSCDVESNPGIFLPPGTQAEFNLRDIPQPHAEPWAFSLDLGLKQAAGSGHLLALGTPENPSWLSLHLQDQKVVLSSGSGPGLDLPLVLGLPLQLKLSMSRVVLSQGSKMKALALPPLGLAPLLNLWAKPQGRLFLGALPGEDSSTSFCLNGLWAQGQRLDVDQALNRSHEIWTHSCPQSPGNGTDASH
Briefly: Binding to sex hormone-binding globulin.

For series [8], the system named is CYP enzymes. Briefly: In vitro CYP inhibition/induction studies. It counts as in vitro ADME. The note with it: therapeutic dose.
The nature of series [9]: Solubility in solvents (descriptive). Format: physicochemical. As to conditions: USP classification.
Series [10] has as its system Salmonella. Briefly: Ames/Salmonella reverse mutation assay. It counts as cell-based.
For series [11], the system named is Chinese hamster ovary cells. Put plainly: Chromosomal aberration assay. Format: cell-based.
The subject of series [12] is mouse. Put plainly: In vivo mouse micronucleus test.
Series [13] has as its system rats. Briefly: Return to fertility study in rats with subdermal implants. It counts as in vivo, rat. As to conditions: 7 weeks after cessation of treatment. The protocol: A return to fertility study was conducted with segesterone acetate in rats, using subdermal implants releasing a dose approximately 25 times the anticipated daily vaginal human dose (based on body surface area).

For the compound `C#C[C@]1(O)CC[C@H]2[C@@H]3CCc4cc(O)ccc4[C@H]3CC[C@@]21C` [EE, 19-nor-17α-pregna-1,3,5(10)-trien-20-yne-3,17-diol], the AUC(0-t) in [1] (Cycle 1, mean (SD), read-out: AUC0−1 day) stood at 2.1 ng·h/mL; in series [1] (Cycle 1, mean (SD), read-out: AUC0−21day), 22.2 ng·h/mL; in [1] (Cycle 3, mean (SD), read-out: AUC0−1 day), 0.9 ng·h/mL; in series [1] (Cycle 3, mean (SD), read-out: AUC0−21day) it was 14.7 ng·h/mL; in series [1] (Cycle 13, mean (SD), read-out: AUC0−1 day), 0.7 ng·h/mL; in [1] (Cycle 13, mean (SD), read-out: AUC0−21day), 9.6 ng·h/mL. Besides, in [2], the “decrease in systemic exposure (AUC0-21day) between the two BMI groups” value is recorded as ≤ 33%. In series [3], the “change in exposure from the vaginal system” value was “no change in exposure”. Also, in series [4], the “effect on serum concentrations of SHBG” value is given as “induces an increase in the serum concentrations of SHBG”. Further, the “amount recoverable from the vaginal system” value in series [5] was “decreased in a time-dependent manner”. In series [5] (cores before assembly, extended storage), the “amount recoverable from the core by extraction” value was “full amount of EE was found to be recoverable”. Also, the excretion route result in [6] was “excreted in the urine and feces as glucuronide and sulfate conjugates”. The primary metabolic route entry in [6] is listed as “primarily metabolized by aromatic hydroxylation”.
For `C=C1C[C@H]2[C@@H]3CCC4=CC(=O)CC[C@@H]4[C@H]3CC[C@]2(C)[C@@]1(OC(C)=O)C(C)=O` [SA, 16-methylene-17α-acetoxy-19-nor-pregn-4-ene-3,20-dione], the “decrease in systemic exposure (AUC0-21day) between the two BMI groups” value in series [2] is on record as “up to 16%”. Also, the “change in exposure from the vaginal system” value in series [3] is “no change in exposure”. In addition, in series [7], the “binding affinity for sex hormone-binding globulin (SHBG)” value is “negligible binding affinity”. Moreover, the “CYP enzyme inhibition or induction” value in series [8] was “unlikely to inhibit or induce CYP enzymes”. Also, the solubility entry was “freely soluble” in series [9] (acetone), “soluble” in series [9] (ethyl acetate), “soluble” in [9] (methanol) and “slightly soluble” in series [9] (n-hexane). The mutagenicity/clastogenicity entry in [10], in series [11] and in [12] was “neither mutagenic nor clastogenic” each time. Moreover, the “effects on ovulation or litter parameters” value in [13] is listed as “no adverse effects on ovulation or resulting litter parameters”. Moreover, the “amount recoverable from the vaginal system” value in series [5] is “remained essentially constant”.
